Patent US20150065509A1 (priority 2012, published 2015)
In brackets after ≈: the same amount, converted by molar mass. Where two headings read alike, the source gives them in different places.

Key:
B. anthracis Sterne = test: microbe, parasite or virus in culture; assay type: cell-based; conditions: for MIC: Bacillus anthracis, 16 h, read-out: MIC (Minimum Inhibitory Concentration)
[1] = molecular target: dihydrofolate reductase (DHFR) (Bacillus anthracis, UniProt Q81R22); test: biochemical; assay type: biochemical, B. anthracis Sterne
dihydrofolate reductase (DHFR), sequence (Q81R22 1-162): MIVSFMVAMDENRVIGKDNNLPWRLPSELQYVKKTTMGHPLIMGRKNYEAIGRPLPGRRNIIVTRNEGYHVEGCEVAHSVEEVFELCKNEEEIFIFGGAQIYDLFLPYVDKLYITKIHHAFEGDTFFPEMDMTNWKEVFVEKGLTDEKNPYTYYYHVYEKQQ

| Structure (SMILES) | MIC (Minimum Inhibitory Concentration) (B. anthracis Sterne) [µg/mL] | IC50 ([1]; read-out: IC50) [µM] | melting point [°C] | MIC (B. anthracis Sterne) [µg/mL] | IC50 [1] [µM] |
| --- | --- | --- | --- | --- | --- |
| COc1cc(Cc2c(C)nc(N)nc2N)cc(/C=C/C(=O)N2N=Cc3ccccc3C2C=C(C)C)c1OC (centres unmarked) [Compound 13, (E)-3-(5-((2,4-Diamino-6-methylpyrimidin-5-yl)methyl)-2,3-dimethoxyphenyl)-1-(isobutenylphthalazin-2(1H)-yl)prop-2-en-1-one] | 4000 (≈ 7.8 mM) | 0.102 | – | – | – |
| CCCc1nc(N)nc(N)c1Cc1cc(/C=C/C(=O)N2N=Cc3ccccc3C2C=C(C)C)c(OC)c(OC)c1 (centres unmarked) [Compound 15, (E)-3-(5-((2,4-Diamino-6-propylpyrimidin-5-yl)methyl)-2,3-dimethoxyphenyl)-1-(isobutenylphthalazin-2(1H)-yl)prop-2-en-1-one] | 2000 (≈ 3.7 mM) | 18 | – | – | – |
| CCCC1c2ccccc2C=NN1C(=O)/C=C/c1cc(Cc2c(C)nc(N)nc2N)cc(OC)c1OC (centres unmarked) [Compound 10, (E)-3-(5-((2,4-Diamino-6-methylpyrimidin-5-yl)methyl)-2,3-dimethoxyphenyl)-1-(1-propyl-phthalazin-2(1H)-yl)prop-2-en-1-one] | – | – | 137 to 138 | 8000 (≈ 16 mM) | 0.517 |
| CCc1nc(N)nc(N)c1Cc1cc(/C=C/C(=O)N2N=Cc3ccccc3C2C=C(C)C)c(OC)c(OC)c1 (centres unmarked) [Compound 14, (E)-3-(5-((2,4-Diamino-6-ethylpyrimidin-5-yl)methyl)-2,3-dimethoxyphenyl)-1-(isobutenylphthalazin-2(1H)-yl)prop-2-en-1-one] | 4000 (≈ 7.6 mM) | 0.181 | – | – | – |
| CCCC1c2ccccc2C=NN1C(=O)/C=C/c1cc(Cc2c(N)nc(N)nc2CC)cc(OC)c1OC (centres unmarked) [Compound 11, (E)-3-(5-((2,4-Diamino-6-ethylpyrimidin-5-yl)methyl)-2,3-dimethoxyphenyl)-1-(propyl-phthalazin-2(1H)-yl)prop-2-en-1-one] | 4000 (≈ 7.77 mM) | 17.4 | – | – | – |
| CCCc1nc(N)nc(N)c1Cc1cc(/C=C/C(=O)N2N=Cc3ccccc3C2CCC)c(OC)c(OC)c1 (centres unmarked) [Compound 12, (E)-3-(5-((2,4-Diamino-6-propylpyrimidin-5-yl)methyl)-2,3-dimethoxyphenyl)-1-(1-propyl-phthalazin-2(1H)-yl)prop-2-en-1-one] | – | – | 140 to 141 | 1000 (≈ 1.89 mM) | 17.1 |
